BigSolDB 2.1

COc1c(C(C)(C)C)cc([N+](=O)[O-])c(C)c1[N+](=O)[O-]
solubility (mole fraction)
Details	278.15 K	283.15 K	288.15 K	293.15 K	298.15 K	303.15 K	308.15 K	313.15 K	318.15 K
in DMAc	0.121	0.14	0.162	0.189	0.221	0.258	0.3	0.347	0.4
in DMF	0.0875	0.107	0.127	0.154	0.183	0.221	0.263	0.31	0.372
in THF	0.157	0.177	0.203	0.231	0.264	0.302	0.342	0.391	0.446
in acetonitrile	0.0355	0.0456	0.0608	0.0819	0.111	0.146	0.189	0.25	0.33
in ethanol	0.00359	0.0046	0.00594	0.00791	0.00992	0.0131	0.0164	0.0215	0.0276
in methanol	0.00266	0.00351	0.00447	0.00561	0.00719	0.00897	0.0112	0.0144	0.018
in n-butanol	0.00491	0.00673	0.0088	0.0111	0.0143	0.0192	0.0241	0.0308	0.0405
in n-propanol	0.00367	0.00463	0.00591	0.00789	0.0105	0.0137	0.0182	0.024	0.0311
